Reference: article PMC9283742 (Clinical and Translational Science, 2022)
Read-outs that look alike come from different tables or passages of the source.

Assays:
[1] = assay type: in vivo, human; conditions: for AUC(0-inf) / AUC(0-t) / Cmax: human, plasma, 40 mg, adjusted G mean, linear mixed effects model; for AUC(0-inf): AUCinf; for AUC(0-t): AUClast
[2] = assay type: in vivo, human; conditions: for decrease in Cmax: with rabeprazole vs asciminib alone
[3] = assay type: in vitro ADME; conditions: for dissolution rate: 40 mg asciminib, 900 ml, 37°C
[4] = In vitro binding constant of asciminib and cyclodextrin; assay type: physicochemical
[5] = weak base; cited from earlier work
[6] = 40 mg asciminib b.i.d., cited from earlier work
[7] = aqueous solution; cited from earlier work
[8] = cited from earlier work
[9] = administered concomitantly with an itraconazole capsule formulation; cited from earlier work
[10] = oral, Cohort 2, asciminib ± quinidine
[11] = oral, Cohort 3, asciminib ± rifampicin
[12] = oral, Cohort 5, asciminib ± clarithromycin
[13] = po, Cohort 1, asciminib ± itraconazole (oral solution)
[14] = with clarithromycin vs asciminib alone, cohort 5
[15] = with itraconazole (oral solution) vs asciminib alone, cohort 1
[16] = with itraconazole oral solution vs asciminib alone
[17] = with quinidine vs asciminib alone, cohort 2
[18] = with rifampicin vs asciminib alone, cohort 3

O=C(Nc1ccc(OC(F)(F)Cl)cc1)c1cnc(N2CC[C@@H](O)C2)c(-c2ccn[nH]2)c1 [Asciminib]
AUC(0-inf) [1, 10]: 6750 ng·h/mL | AUC(0-inf) [1, 11]: 5630 ng·h/mL | AUC(0-inf) [1, 12]: 5740 ng·h/mL | AUC(0-t) [1, 10]: 6700 ng·h/mL | AUC(0-t) [1, 11]: 5400 ng·h/mL | AUC(0-t) [1, 12]: 5670 ng·h/mL | Cmax [1, 10]: 618 ng/mL | Cmax [1, 11]: 559 ng/mL | AUC(0-inf) [1, 13]: 7000 ng·h/mL | AUC(0-t) [1, 13]: 6950 ng·h/mL | Cmax [1, 13]: 679 ng/mL | increase in asciminib exposure ([1]; with clarithromycin vs asciminib alone): ~ 35% | increase in AUCinf [1, 14]: 36% | increase in AUClast [1, 14]: 37% | increase in Cmax [1, 14]: 19% | decrease in G mean of AUCinf [1, 15]: 40.2% | decrease in G mean of AUClast [1, 15]: 41.2% | increase in asciminib exposure ([1]; with itraconazole capsule vs asciminib alone): ~ 3% | decrease in asciminib Cmax [1, 16]: ~ 50% | decrease in asciminib exposure (AUC) [1, 16]: ~ 40% | decrease in asciminib Cmax ([1]; with itraconazole oral solution vs asciminib alone, listed as asciminib): 50.1% | decrease in asciminib AUC ([1]; with quinidine vs asciminib alone): 13–16% | decrease in AUCinf [1, 17]: 12.9% | decrease in AUClast [1, 17]: 16.0% | decrease in Cmax [1, 17]: 11.3% | decrease in asciminib AUC (exposure) ([1]; with rifampicin vs asciminib alone): 13–15% | decrease in AUCinf [1, 18]: 14.9% | decrease in AUClast [1, 18]: 12.7% | increase in Cmax [1, 18]: 9% | decrease in asciminib AUC (exposure) ([1]; with rifampicin vs asciminib alone, listed as asciminib): 15% | AUC(0-inf) ([2]; human, plasma, oral, 40 mg): 9850 ng·h/mL | AUC(0-t) ([2]; human, plasma, oral, 40 mg): 9200 ng·h/mL | Cmax ([2]; human, plasma, oral, 40 mg): 943 ng/mL | AUC(0-inf) ([2]; human, plasma, po, 40 mg): 9850 ng·h/mL | AUC(0-t) ([2]; human, plasma, po, 40 mg): 9200 ng·h/mL | Cmax ([2]; human, plasma, po, 40 mg): 943 ng/mL | half-life ([2]; human, plasma, po, 40 mg): 12.6 h | decrease in Cmax [2]: 9% | decrease in Cmax ([2]; listed as asciminib): ~ 9% | dissolution rate ([3]; FaSSIF V2 media alone): 87% | flux ([3]; FaSSIF V2 media alone, acceptor volume 12 ml): 1.29 µg/min | calculated flux ([3]; FaSSIF V2 media alone, membrane area 3.88 cm^2): 0.332 μg/min*cm^2 | dissolution rate ([3]; FaSSIF V2 media with added cyclodextrin): 105% | calculated flux ([3]; FaSSIF V2 plus cyclodextrin): 0.071 μg/min*cm^2 | flux rate ([3]; FaSSIF V2 plus cyclodextrin): 0.28 µg/min | decrease of asciminib flux through a lipid membrane ([3]; by cyclodextrin): ~ 80% | drop in binding constant ([4]; FaSSIF V2 and 0.3× FeSSIF V2 vs buffer): ~ 65 fold | binding to cyclodextrin ([4]; acidic pH of FaSSGF and high bile component concentration of FeSSIF V2): practically no binding | pK a [5]: 4.0 | AUC0–12 h at steady-state, G mean ([6]; Japanese subjects (n = 5), GCV% 22.8): 6450 ng·h/mL | AUC0–12 h at steady-state, G mean ([6]; non-Japanese subjects (n = 8), GCV% 39.4): 5370 ng·h/mL | pH-dependent solubility [7]: high at acidic pH and decreases with increasing pH

C[C@H]1CN(C2COC2)CCN1c1ccc(Nc2cc(-c3ccnc(N4CCn5c(cc6c5CC(C)(C)C6)C4=O)c3CO)cn(C)c2=O)nc1 [fenebrutinib]
in vitro binding constant with cyclodextrin [8]: 200,000 /M

CCc1cc(/C(C)=N/OCc2ccc(C3CCCCC3)c(C(F)(F)F)c2)ccc1CN1CC(C(=O)O)C1 [siponimod]
decrease in exposure [9]: 10%–24%
